From PubChem BioAssay AID328 (DTP/NCI, 2004)
Values joined by “and” are separate entries in the source; they are usually repeats but may differ in a detail not shown here. Equal values may be shown once. Inconclusive results and toxic doses are left out.

System: BDF1 mice, P388 leukemia ip, median survival T/C
Assay: NCI In Vivo Anticancer Drug Screen. Data for tumor model P388 Leukemia (intraperitoneal) in B6D2F1 (BDF1) mice
Conditions: endpoint: median survival time, higher = longer survival
Outline: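 Antitumour effect was judged in vivo: survival in drug-treated mice, normalised to that of vehicle-dosed controls, gives the reported T/C.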

[1] = dose: 100.0 mg/kg/injection, schedule: Q01DX009 (ip), vehicle: Klucel (hydroxypropylcellulose) (HPC)
[2] = dose: 200.0 mg/kg/injection, schedule: Q01DX009 (ip), vehicle: Klucel (hydroxypropylcellulose) (HPC)
[3] = dose: 400.0 mg/kg/injection, schedule: Q01DX009 (ip), vehicle: Klucel (hydroxypropylcellulose) (HPC)
[4] = dose: 100.0 mg/kg/injection, schedule: Q04DX003 (ip), vehicle: saline
[5] = dose: 200.0 mg/kg/injection, schedule: Q04DX003 (ip), vehicle: saline
[6] = dose: 400.0 mg/kg/injection, schedule: Q04DX003 (ip), vehicle: saline
[7] = dose: 100.0 mg/kg/injection, schedule: Q04DX003 (ip), vehicle: saline with Tween-80
[8] = dose: 200.0 mg/kg/injection, schedule: Q04DX003 (ip), vehicle: saline with Tween-80
[9] = dose: 400.0 mg/kg/injection, schedule: Q04DX003 (ip), vehicle: saline with Tween-80
[10] = dose: 25.0 mg/kg/injection, schedule: Q01DX009 (ip), vehicle: saline with Tween-80
[11] = dose: 50.0 mg/kg/injection, schedule: Q01DX009 (ip), vehicle: saline with Tween-80
[12] = dose: 100.0 mg/kg/injection, schedule: Q01DX009 (ip), vehicle: saline with Tween-80
[13] = dose: 200.0 mg/kg/injection, schedule: Q01DX009 (ip), vehicle: saline with Tween-80
[14] = dose: 100.0 mg/kg/injection, schedule: Q01DX001 (ip), vehicle: Klucel (hydroxypropylcellulose) (HPC)
[15] = dose: 100.0 mg/kg/injection, schedule: Q04DX003 (ip), vehicle: Klucel (hydroxypropylcellulose) (HPC)
[16] = dose: 200.0 mg/kg/injection, schedule: Q01DX001 (ip), vehicle: Klucel (hydroxypropylcellulose) (HPC)
[17] = dose: 400.0 mg/kg/injection, schedule: Q01DX001 (ip), vehicle: Klucel (hydroxypropylcellulose) (HPC)
[18] = dose: 400.0 mg/kg/injection, schedule: Q04DX003 (ip), vehicle: Klucel (hydroxypropylcellulose) (HPC)
[19] = dose: 100.0 mg/kg/injection, schedule: Q01DX001 (ip), vehicle: saline sonified
[20] = dose: 200.0 mg/kg/injection, schedule: Q01DX001 (ip), vehicle: saline sonified
[21] = dose: 400.0 mg/kg/injection, schedule: Q01DX001 (ip), vehicle: saline sonified
[22] = dose: 6.25 mg/kg/injection, schedule: Q01DX009 (ip), vehicle: saline
[23] = dose: 200.0 mg/kg/injection, schedule: Q04DX003 (ip), vehicle: Klucel (hydroxypropylcellulose) (HPC)
[24] = dose: 50.0 mg/kg/injection, schedule: Q01DX009 (ip), vehicle: Klucel (hydroxypropylcellulose) (HPC)

Nc1ncnc2sc3c(c12)CCCC3
T/C [1]: 105 % of control
T/C [2]: 114 % of control
T/C [3]: 108 % of control

Nc1cc2ccncc2c2sc3ccccc3c12
T/C [4]: 104 % of control
T/C [5]: 97 % of control
T/C [6]: 106 % of control

O=c1cccc2n1CC1CNC[C@H]2C1
T/C (dose: 1.5 mg/kg/injection, schedule: Q01DX010 (ip), vehicle: saline): 104 % of control
T/C (dose: 3.0 mg/kg/injection, schedule: Q01DX010 (ip), vehicle: saline): 109 % of control
T/C (dose: 6.0 mg/kg/injection, schedule: Q01DX010 (ip), vehicle: saline): 109 % of control

CC(=O)Cc1ccc(C(=O)C(C)Cc2ccc(C(C)=O)cc2)cc1 (stereo unspecified)
T/C [7]: 100 % of control
T/C [8]: 90 % of control
T/C [9]: 90 % of control

CCOC(=O)c1c[nH]c2c(OC)cccc2c1=O
T/C [10]: 93 % of control
T/C [11]: 109 % of control
T/C [12]: 109 % of control
T/C [7]: 99 % of control
T/C [13]: 109 % of control
T/C [8]: 98 % of control
T/C (dose: 300.0 mg/kg/injection, schedule: Q01DX009 (ip), vehicle: saline with Tween-80): 90 % of control

CCCCCCCC(=O)NCCCC
T/C [14]: 104 % of control
T/C [15]: 91 % of control
T/C [16]: 86 % of control
T/C [17]: 104 % of control
T/C [18]: 100 % of control

Nc1n[nH]c([N+](=O)[O-])n1
T/C [19]: 108 % of control
T/C [20]: 100 % of control
T/C [21]: 100 % of control

CCOc1nc(=O)n(CC(=O)c2ccc(Cl)s2)cc1F
T/C [11]: 114 % of control
T/C [12]: 103 % of control
T/C [7]: 110 % of control
T/C [13]: 99 % of control
T/C [8]: 111 % of control
T/C (dose: 400.0 mg/kg/injection, schedule: Q01DX009 (ip), vehicle: saline with Tween-80): 87 % of control
T/C [9]: 104 % of control

CCC1NC(C)(C)CC1=C(C)C (stereo unspecified)
T/C (dose: 1.56 mg/kg/injection, schedule: Q01DX009 (ip), vehicle: saline): 104 % of control
T/C (dose: 3.13 mg/kg/injection, schedule: Q01DX009 (ip), vehicle: saline): 104 % of control
T/C [22]: 104 % of control

CCOC(=O)C(OCc1ccccc1)(C(=O)Cl)C(C)C (stereo unspecified)
T/C [11]: 118 % of control

OCCOc1cccc(OCCO)c1
T/C [7]: 100 % of control
T/C [8]: 100 % of control
T/C [9]: 104 % of control

NC(=O)C12CCCCC1CCC(=O)C2 (stereo unspecified)
T/C (dose: 25.0 mg/kg/injection, schedule: Q04DX003 (ip), vehicle: saline sonified): 105 % of control
T/C (dose: 50.0 mg/kg/injection, schedule: Q04DX003 (ip), vehicle: saline sonified): 100 % of control
T/C (dose: 100.0 mg/kg/injection, schedule: Q04DX003 (ip), vehicle: saline sonified): 95 % of control

CC1=CC(OC2CCCCO2)C2CC1C2(C)C (stereo unspecified)
T/C [15]: 112 % of control
T/C [23]: 112 % of control
T/C [18]: 104 % of control

Cc1ccccc1OS(=O)(=O)c1ccccc1[N+](=O)[O-]
T/C [19]: 100 % of control
T/C [20]: 110 % of control
T/C [21]: 105 % of control

CC(Cl)(Cl)CC(O)(C(F)(F)F)C(F)(F)F
T/C (dose: 50.0 mg/kg/injection, schedule: Q04DX003 (ip), vehicle: saline with Tween-80): 95 % of control
T/C [7]: 90 % of control
T/C [8]: 90 % of control

CC(C)CCC[C@@H](C)[C@H]1CC[C@H]2[C@@H]3CC[C@H]4C[C@H]5N[C@H]5C[C@]4(C)[C@H]3CC[C@]12C
T/C (dose: 50.0 mg/kg/injection, schedule: Q01DX001 (ip), vehicle: saline sonified): 100 % of control
T/C [19]: 95 % of control

CC1(C)CCC(C#N)=C1N
T/C (dose: 12.5 mg/kg/injection, schedule: Q01DX009 (ip), vehicle: saline with Tween-80): 95 % of control
T/C [10]: 91 % of control
T/C [11]: 95 % of control

O=C1OC(c2ccc([N+](=O)[O-])cc2)Sc2ccccc21 (stereo unspecified)
T/C [24]: 86 % of control
T/C [14]: 100 % of control
T/C [15]: 100 % of control
T/C [16]: 100 % of control
T/C [2]: 100 % of control
T/C [23]: 104 % of control
T/C [17]: 100 % of control
T/C [18]: 109 % of control

Cc1cc(N(CCCl)CCCl)ccc1C=Nc1cccc(Cl)c1
T/C [11]: 103 % of control
T/C [12]: 119 % of control
T/C [7]: 118 % of control
T/C [13]: 96 % of control
T/C [8]: 118 % of control

CSc1cccc(NC(=O)Nc2onc(C)c2C)c1
T/C (dose: 12.5 mg/kg/injection, schedule: Q01DX009 (ip), vehicle: Klucel (hydroxypropylcellulose) (HPC)): 101 % of control
T/C (dose: 25.0 mg/kg/injection, schedule: Q01DX009 (ip), vehicle: Klucel (hydroxypropylcellulose) (HPC)): 99 % of control
T/C [24]: 101 % of control

S=P(N1CCCC1)(N1CC1)N1CC1
T/C (dose: 5.0 mg/kg/injection, schedule: Q01DX009 (ip), vehicle: saline with Tween-80): 158 % of control
T/C (dose: 10.0 mg/kg/injection, schedule: Q01DX009 (ip), vehicle: saline with Tween-80): 104 % of control

O=CNc1c(Cl)c(Cl)c2c(c1Cl)Cc1cc(Cl)ccc1-2
T/C (dose: 0.18 mg/kg/injection, schedule: Q01DX009 (ip), vehicle: DMSO): 91 % of control
T/C (dose: 0.37 mg/kg/injection, schedule: Q01DX009 (ip), vehicle: DMSO): 95 % of control
T/C (dose: 0.75 mg/kg/injection, schedule: Q01DX009 (ip), vehicle: DMSO): 100 % of control
T/C (dose: 3.0 mg/kg/injection, schedule: Q01DX009 (ip), vehicle: DMSO): 89 % of control
T/C (dose: 12.5 mg/kg/injection, schedule: Q01DX009 (ip), vehicle: DMSO): 96 % of control
T/C (dose: 50.0 mg/kg/injection, schedule: Q01DX001 (ip), vehicle: Klucel (hydroxypropylcellulose) (HPC)): 90 % of control
T/C [14]: 90 % of control
T/C [1]: 116 % of control
T/C [15]: 90 % of control and 100 % of control
T/C [16]: 86 % of control
T/C [2]: 116 % of control
T/C [23]: 90 % of control and 91 % of control
T/C [3]: 105 % of control
T/C [18]: 86 % of control and 87 % of control

CC1C=CCC(C)(C)C1 (stereo unspecified)
T/C [10]: 104 % of control
T/C [11]: 100 % of control
T/C [12]: 100 % of control and 113 % of control

CCCCSCC(N)C(=O)OC (stereo unspecified)
T/C (dose: 100.0 mg/kg/injection, schedule: Q01DX009 (ip), vehicle: saline): 103 % of control
T/C [4]: 100 % of control
T/C (dose: 200.0 mg/kg/injection, schedule: Q01DX009 (ip), vehicle: saline): 111 % of control
T/C [5]: 104 % of control
T/C (dose: 400.0 mg/kg/injection, schedule: Q01DX009 (ip), vehicle: saline): 106 % of control
T/C [6]: 109 % of control

COC1CC=CC2=C1CCC1C2CC2C(=O)C1(C)CCC2O (stereo unspecified)
T/C (dose: 100.0 mg/kg/injection, schedule: Q01DX001 (ip), vehicle: other): 105 % of control
T/C (dose: 200.0 mg/kg/injection, schedule: Q01DX001 (ip), vehicle: other): 100 % of control
T/C (dose: 400.0 mg/kg/injection, schedule: Q01DX001 (ip), vehicle: other): 100 % of control

CCN(CC)C(N)=Nc1ccc(NC(=O)c2ccc(C(=O)Nc3ccc(N=C(N)N(CC)CC)cc3)cc2)cc1
T/C (dose: 3.12 mg/kg/injection, schedule: Q01DX009 (ip), vehicle: saline): 151 % of control
T/C [22]: 196 % of control
T/C (dose: 12.5 mg/kg/injection, schedule: Q01DX009 (ip), vehicle: saline): 105 % of control

COC(=O)C1Cc2c([nH]c3ccccc23)CN1 (stereo unspecified)
T/C (dose: 10.0 mg/kg/injection, schedule: Q01DX009 (ip), vehicle: saline): 116 % of control
T/C (dose: 10.0 mg/kg/injection, schedule: Q04DX003 (ip), vehicle: saline): 95 % of control
T/C (dose: 20.0 mg/kg/injection, schedule: Q01DX009 (ip), vehicle: saline): 100 % of control
T/C (dose: 20.0 mg/kg/injection, schedule: Q04DX003 (ip), vehicle: saline): 109 % of control
T/C (dose: 40.0 mg/kg/injection, schedule: Q01DX009 (ip), vehicle: saline): 112 % of control
T/C (dose: 40.0 mg/kg/injection, schedule: Q04DX003 (ip), vehicle: saline): 95 % of control
